Data from patent US6962930B1, “Compounds, compositions and method suitable for amelioration of withdrawal syndromes and withdrawal-induced brain damage” (Lohocla Research Corporation, priority 1997, dated 2005).

Key:
[1] = biological target: voltage-sensitive sodium channels; assay: [3H]BTX binding to rat cortical synaptosomes; conditions: non-depolarizing conditions, none = no displacement at 100 μM, read-out: IC50 (μM) [3H]BTX binding
[2] = biological target: α2-noradrenergic receptors; assay: [3H]rauwolscine binding, rat cortex crude membranes; conditions: crude P1 membranes
Experimental: Rat cortices were homogenized in 20 volumes of ice-cold HEPES-KOH buffer (20 mM, pH 7.4) and twice centrifuged at 50,000 g for 20 min with an intermediate suspension in fresh buffer. The final pellet was stored at −20° C. in 4 volumes of buffer. The binding of [^3H]rauwolscine was performed in a 0.5 ml volume using 250–300 μg tissue and 1 nM [^3H]rauwolscine in 20 mM HEPES-KOH buffer (pH 7.4 at 23° C.). Non-specific binding was defined by use of 100 μM norepinephrine.

[3] = biological target: T1, NMDA receptor ion channel (Rattus norvegicus, UniProt P35439); assay: [3H]dizocilpine binding to rat cortical membranes; conditions: no exogenous glycine; 100 or 300 μM DCUKA, 30 or 100 μM DCUK-OMe; attenuated by 1 μM glycine
T1 construct: from tissue; host or cells: rat cerebral cortex, crude synaptic (buffy coat) membranes
Experimental: [^3H]Dizocilpine (MK-801) binding assays were performed in a volume of 1 ml containing 100–150 μg of tissue, 5 nM [^3H]dizocilpine, 10 μM L-glutamate, 30 μM MgSO4, and 100 or 300 μM DCUKA or 30 or 100 μM DCUK-OMe, in 10 mM HEPES-KOH buffer (pH 7.4 at 23° C.). Incubations were for 30 minutes at room temperature. The reaction mixtures were filtered over GF/B filters presoaked in 0.1% polyethyleneimine. Bound radioactivity was quantitated by liquid scintillation spectroscopy. Non-specific binding was defined with 20 μM dizocilpine. Under these conditions, [^3H]dizocilpine binding can be used as a measure of the activation of the NMDA receptor ion channel by glycine. See, for example, Wong, E. H. F., et al.,“ GLYCINE MODULATES [^3H]MK-801BINDING TO THE NMDA RECEPTOR IN RAT BRAIN.” Eur. J. Pharmacol., 142 487–488 (1987).
The results obtained are plotted in FIG. 2 where open bars indicate no glycine added and hatched bars indicate 1 μM glycine added to the incubation. Data were statistically analyzed by 2-way analysis of variance (ANOVA) followed by Tukey test. In FIG. 2, * denotes P<0.05 compared to the zero concentration of DCUKA or DCUK-OMe within a given glycine condition, while ** denotes P<0.05 compared to the 0 glycine condition at a given concentration of DCUKA or DCUK-OMe. […]

[4] = biological target: T2, strychnine-insensitive glycine binding site on the NMDA receptor (Rattus norvegicus, UniProt P35439); assay: [3H]5,7-DCKA binding to rat cortical membranes; conditions: 20 nM [3H]5,7-DCKA
T2 construct: from tissue; host or cells: rat cerebral cortex, crude synaptic (buffy coat) membranes
Experimental: Male Sprague-Dawley rats were killed, their brains removed, and their cerebral cortices dissected and binding of [^3H]5,7-dichlorokynurenate ([^3H]5,7-DCKA) assayed. [^3H]5,7-DCKA binding assays were performed in crude synaptic membranes prepared by a modification of the method of Jones, et al., J. Pharmacol. Methods, 21 161–168 (1989) the relevant disclosures of which are incorporated herein by reference. The pelleted “buffy coat”fraction was obtained by centrifugation and frozen at about −80° C. for at least 18 hours. On the day that the binding assays were performed, the pelleted membranes were resuspended in 50 mM HEPES-KOH buffer (pH 7.8) containing 0.08% TRITON® X-100. After stirring for about 30 min at about 4° C., the membranes were pelleted by recentrifugation and then washed twice by resuspension in buffer and centrifugation.
Binding assays were performed in 0.5 ml volume using 150–200 μg of tissue, 20 nM [^3H]5,7-DCKA and 3–300 μM DCUKA or MeO-DCUKA or 1–100 μM DCUK-OMe (all concentrations are final concentrations in 0.6% dimethyl sulfoxide (DMSO)). Incubations were performed for about 45 min at about 4° C. followed by termination by centrifugation. Bound radioactivity was quantitated by liquid scintillation spectroscopy. Non-specific binding was defined with 1 mM glycine.

[5] = tested on: primary cultures of rat cerebellar granule cells; assay: Glutamate-induced excitotoxic cell death, fluorescein assay; type: cell-based
Experimental: Primary cultures of cerebellar granule cells were prepared from 6- to 8-day old Sprague-Dawley rats. A description of this procedure can be found in Iorio, K. R., et al., “CHRONIC EXPOSURE OF CEREBELLAR GRANULE CELLS TO ETHANOL RESULTS IN INCREASED N-METHYL-D-ASPARTATE RECEPTOR FUNCTION,” Mol. Pharmacol., 41 1142–1148 (1992), the relevant disclosures of which are incorporated herein by reference. The cultures were maintained in plates containing 24 wells of 1 ml each. Culture density was about 1.5×10^6 cells/ml. Cell viability was assayed after 7–8 days in culture by the production of fluorescein, formed from fluorescein diacetate by esterases present in living cells. […]
Cells were washed with Mg^2+-free Locke's buffer, and then exposed to glutamate alone or glutamate in the presence of 10, 30, or 100 μM DCUK-OMe at 25° C. for 30 minutes. […] For each study, the fluorescence value of a control culture (i.e., not exposed to glutamate) was set to 35,000 fluorescence units, and fluorescence values in all other cultures determined using the same spectrofluorometric settings were normalized to that value. […] The data are then expressed as the percent cell death relative to the control cultures.

Compound | IC50 [1] [µM] | IC50 [2] [µM] | effect on [3H]dizocilpine binding [3] | IC50 [4] [µM] | protection from glutamate-induced cell death ([5]; 100 μM) | effect on glutamate-induced cell death ([5]; 10, 30 or 100 μM, 30 minutes with glutamate)
O=C(O)c1cc(NC(=O)N(c2ccccc2)c2ccccc2)c2c(Cl)cc(Cl)cc2n1 [DCUKA, (N,N-diphenyl)-4-ureido-5,7-dichloro-2-carboxy-quinoline] | 76 | > 200 | concentration-related decrease in [^3H]dizocilpine binding | 22 | – | –
COC(=O)c1cc(NC(=O)N(c2ccccc2)c2ccccc2)c2c(Cl)cc(Cl)cc2n1 [DCUK-OMe, (N,N-diphenyl)-4-ureido-5,7-dichloro-2-carboxy-quinoline methyl ester] | 25 | – | concentration-related decrease in [^3H]dizocilpine binding | 5 | complete protection | can block glutamate-induced cell death in a concentration-dependent manner
